Laboratory results published in the NIST ThermoML archive (doi:10.1016/j.jct.2012.03.034).
± gives the expanded uncertainty stated by the source.

Assay: xn = mol fraction of the nth substance listed
Settings: 101 kPa, Liquid; for speed of sound: Linear variable-path acoustic interferometer; for mass density: Vibrating tube method; for viscosity: dual vibrating plate viscometer, AandD Co. Ltd Model SV-10

Work on CC(=O)O.CCN(CC)CC [triethylammonium acetate] + CN1CCCC1=O yielded a speed of sound (308.15 K, x1 = 0.0138) of 1530 ± 2 m/s, a speed of sound (308.15 K, x1 = 0.0302) of 1533 ± 2 m/s and a speed of sound (308.15 K, x1 = 0.0813) of 1536 ± 2 m/s. For the same compound, the speed of sound (308.15 K, x1 = 0.117) was 1539 ± 2 m/s, the speed of sound (308.15 K, x1 = 0.1733) was 1544 ± 2 m/s and the speed of sound (308.15 K, x1 = 0.2751) was 1553 ± 2 m/s. For the same compound, the speed of sound (308.15 K, x1 = 0.3189) was 1559 ± 2 m/s, the speed of sound (308.15 K, x1 = 0.3865) was 1572 ± 2 m/s and the speed of sound (308.15 K, x1 = 0.5133) was 1593 ± 2 m/s. It also gave a speed of sound (308.15 K, x1 = 0.6561) of 1632 ± 2 m/s, a speed of sound (308.15 K, x1 = 0.8181) of 1698 ± 2 m/s and a speed of sound (308.15 K, x1 = 0.926) of 1753 ± 2 m/s. The speed of sound (308.15 K, x1 = 0.9642) was 1776 ± 2 m/s, the speed of sound (308.15 K, x1 = 1) was 1798 ± 2 m/s and the mass density (308.15 K, x1 = 0.0138) was 1020.18 ± 0.31 kg/m3. The mass density (308.15 K, x1 = 0.0302) was 1020.47 ± 0.3 kg/m3, the mass density (308.15 K, x1 = 0.0813) was 1020.35 ± 0.3 kg/m3 and the mass density (308.15 K, x1 = 0.117) was 1019.88 ± 0.3 kg/m3. The mass density (308.15 K, x1 = 0.1733) was 1018.8 ± 0.3 kg/m3, the mass density (308.15 K, x1 = 0.2751) was 1015.91 ± 0.3 kg/m3 and the mass density (308.15 K, x1 = 0.3189) was 1014.49 ± 0.3 kg/m3. The mass density (308.15 K, x1 = 0.3865) was 1011.99 ± 0.3 kg/m3, the mass density (308.15 K, x1 = 0.5133) was 1007.46 ± 0.3 kg/m3 and the mass density (308.15 K, x1 = 0.6561) was 1003.25 ± 0.29 kg/m3. The mass density (308.15 K, x1 = 0.8181) was 1000.89 ± 0.29 kg/m3, the mass density (308.15 K, x1 = 0.926) was 1001.01 ± 0.29 kg/m3 and the mass density (308.15 K, x1 = 0.9642) was 1001.75 ± 0.29 kg/m3. For the same compound, the mass density (308.15 K, x1 = 1) was 1002.61 ± 0.29 kg/m3, the viscosity (308.15 K, x1 = 0.0138) was 1.5 ± 0.03 mPa·s and the viscosity (308.15 K, x1 = 0.0302) was 1.81 ± 0.04 mPa·s. The viscosity (308.15 K, x1 = 0.0813) was 2.61 ± 0.06 mPa·s, the viscosity (308.15 K, x1 = 0.117) was 3.03 ± 0.06 mPa·s and the viscosity (308.15 K, x1 = 0.1733) was 3.36 ± 0.07 mPa·s. For the same compound, the viscosity (308.15 K, x1 = 0.2751) was 3.28 ± 0.07 mPa·s, the viscosity (308.15 K, x1 = 0.3189) was 3.14 ± 0.07 mPa·s and the viscosity (308.15 K, x1 = 0.3865) was 2.59 ± 0.05 mPa·s. It also gave a viscosity (308.15 K, x1 = 0.5133) of 2.51 ± 0.05 mPa·s, a viscosity (308.15 K, x1 = 0.6561) of 3.1 ± 0.07 mPa·s and a viscosity (308.15 K, x1 = 0.8181) of 7.76 ± 0.16 mPa·s. The viscosity (308.15 K, x1 = 0.926) was 13.1 ± 0.27 mPa·s, the viscosity (308.15 K, x1 = 0.9642) was 14.98 ± 0.31 mPa·s and the viscosity (308.15 K, x1 = 1) was 16.13 ± 0.33 mPa·s. It also gave a speed of sound (313.15 K, x1 = 0.0138) of 1525 ± 2 m/s, a speed of sound (313.15 K, x1 = 0.0302) of 1527 ± 2 m/s and a speed of sound (313.15 K, x1 = 0.0813) of 1529 ± 2 m/s. It also gave a speed of sound (313.15 K, x1 = 0.117) of 1530 ± 2 m/s, a speed of sound (313.15 K, x1 = 0.1733) of 1535 ± 2 m/s and a speed of sound (313.15 K, x1 = 0.2751) of 1543 ± 2 m/s. For the same compound, the speed of sound (313.15 K, x1 = 0.3189) was 1548 ± 2 m/s, the speed of sound (313.15 K, x1 = 0.3865) was 1561 ± 2 m/s and the speed of sound (313.15 K, x1 = 0.5133) was 1582 ± 2 m/s. For the same compound, the speed of sound (313.15 K, x1 = 0.6561) was 1616 ± 2 m/s, the speed of sound (313.15 K, x1 = 0.8181) was 1669 ± 2 m/s and the speed of sound (313.15 K, x1 = 0.926) was 1716 ± 2 m/s. For the same compound, the speed of sound (313.15 K, x1 = 0.9642) was 1735 ± 2 m/s, the speed of sound (313.15 K, x1 = 1) was 1752 ± 2 m/s and the mass density (313.15 K, x1 = 0.0138) was 1015.8 ± 0.31 kg/m3. For the same compound, the mass density (313.15 K, x1 = 0.0302) was 1016.2 ± 0.3 kg/m3, the mass density (313.15 K, x1 = 0.0813) was 1016.66 ± 0.3 kg/m3 and the mass density (313.15 K, x1 = 0.117) was 1016.4 ± 0.3 kg/m3. The mass density (313.15 K, x1 = 0.1733) was 1015.69 ± 0.3 kg/m3, the mass density (313.15 K, x1 = 0.2751) was 1013.39 ± 0.3 kg/m3 and the mass density (313.15 K, x1 = 0.3189) was 1012.13 ± 0.3 kg/m3. The mass density (313.15 K, x1 = 0.3865) was 1010.15 ± 0.3 kg/m3, the mass density (313.15 K, x1 = 0.5133) was 1006.1 ± 0.29 kg/m3 and the mass density (313.15 K, x1 = 0.6561) was 1002.5 ± 0.29 kg/m3. For the same compound, the mass density (313.15 K, x1 = 0.8181) was 1000.41 ± 0.29 kg/m3, the mass density (313.15 K, x1 = 0.926) was 1000.32 ± 0.29 kg/m3 and the mass density (313.15 K, x1 = 0.9642) was 1000.61 ± 0.29 kg/m3. For the same compound, the mass density (313.15 K, x1 = 1) was 1000.97 ± 0.29 kg/m3, the viscosity (313.15 K, x1 = 0.0138) was 1.47 ± 0.03 mPa·s and the viscosity (313.15 K, x1 = 0.0302) was 1.72 ± 0.04 mPa·s. The viscosity (313.15 K, x1 = 0.0813) was 2.3 ± 0.05 mPa·s, the viscosity (313.15 K, x1 = 0.117) was 2.78 ± 0.06 mPa·s and the viscosity (313.15 K, x1 = 0.1733) was 3.04 ± 0.06 mPa·s. The viscosity (313.15 K, x1 = 0.2751) was 2.98 ± 0.06 mPa·s, the viscosity (313.15 K, x1 = 0.3189) was 2.83 ± 0.06 mPa·s and the viscosity (313.15 K, x1 = 0.3865) was 2.38 ± 0.05 mPa·s. For the same compound, the viscosity (313.15 K, x1 = 0.5133) was 2.34 ± 0.05 mPa·s, the viscosity (313.15 K, x1 = 0.6561) was 3.01 ± 0.06 mPa·s and the viscosity (313.15 K, x1 = 0.8181) was 7.08 ± 0.15 mPa·s. For the same compound, the viscosity (313.15 K, x1 = 0.926) was 11.65 ± 0.24 mPa·s, the viscosity (313.15 K, x1 = 0.9642) was 13.39 ± 0.28 mPa·s and the viscosity (313.15 K, x1 = 1) was 14.81 ± 0.31 mPa·s.
